Results published in article PMC10447463, “Data-mining unveils structure–property–activity correlation of viral infectivity enhancing self-assembling peptides” (Nature Communications, 2023).
Like-named read-outs stand apart in the source and are kept apart here.

How the values were obtained:
[1] = format: physicochemical; details: STD prep
[2] = system: HIV-1 infection of TZM-bl cells; assay: HIV-1 infectivity enhancement assay, β-galactosidase luminescence; format: cell-based; details: for Log10 Inf. rel. to EF-C: log10 of HIV-1 infection of TZM-bl cells relative to EF-C, Fig S15 source data, asymmetric std dev errors; for Rel-to EFC / n-fold to virus: Fig S8 panels B, D; for Rel-to EFC: infectivity enhancement relative to EF-C
[3] = Zeta-potential measurement; format: physicochemical; details: for Zeta-pot. / mV: zeta potential of peptide, Fig S15 source data
Outline: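 Dissolve peptide from DMSO (10 mg/mL stock) into PBS pH 7.4 to 1 mg/mL. Incubate 1 d, RT. Dilute in 1 mM KCl just before reading. Derive zeta potential from mobility (Smoluchowski).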

[4] = Feb2021, 1.3 µM value relative to virus only (0 µM)
[5] = Feb2021, log10 of infectivity relative to EF-C
[6] = Feb2021, n-fold infectivity relative to EF-C
[7] = Feb2021, unrounded values of the 1.3 µM column
[8] = infectivity class (low / medium / high) of each library peptide, main list in c1-c6, same classes repeated in sub-lists of sequences containing the hydrophobicity/charge patterns P+,H0,P+,H0,P0,H0,P0, P+,H0,P0,H0,P0,H0,P0, P+,H0,P0,H0
[9] = Feb2021, Log10 of infectivity relative to EF-C
[10] = Feb2021, figures match the 1.3 µM column
[11] = Feb2021, infectivity relative to virus only
[12] = Feb2021, n-fold enhancement relative to EF-C
[13] = infectivity class (low / medium / high) of the peptide in the sequence-pattern analysis, Fig. S22-A4, class limits not given
[14] = Feb2021 run, infectivity n-fold relative to virus alone
[15] = Feb2021 run, log10 of infectivity relative to EF-C
[16] = Feb2021 run, n-fold infectivity relative to EF-C
[17] = infectivity n-fold relative to virus alone

Substance | TEM: 1= fibrils, 0= aggregates (micelle), 0.5 = aggregates and fibrils, -1 = nothing obersved, STD prep [1] | n-fold to virus (Feb2021) [2, 4] | Rel-to EFC (Feb-2021) [2, 6] | Absolute Infectivity / RLU /s (Feb2021) [2, 7] [RLU /s] | infectivity [2, 8] | Log10 Inf. rel. to EF-C [2] | Zeta category ( +1 = if > 4 mV;-1 = if < -4 mV; 0 = -4mV to 4 mV) [3] | Zeta Pot. / mV ([3]; mean, Std Zeta in next column) [mV] | Zeta-pot. / mV [3] [mV] | Log10 of Rel to EFC (Feb2021) [2, 9] | Absolute Infectivity / RLU /s (Feb2021) [2, 10] [RLU /s] | n-fold to virus (Feb2021) [2, 11] | Rel-to EFC (Feb-2021) [2, 12] | infectivity [2, 13] | Zeta Pot. / mV [3] [mV] | Zeta category ( +1 = if > 4 mV;-1 = if < -4 mV; 0 = -4mV to 4 mV) ([3]; category from zeta potential) | n-fold to virus (Feb2021) [2, 14] | Log10 of Rel to EFC (Feb2021) [2, 15] | Rel-to EFC (Feb-2021) [2, 16] | Zeta Pot. / mV ([3]; mean, Std in separate column) [mV] | further results
CSISIQINM [TM145] | 0.5 | 8.332 | 0.1983 | 10943.33333 | medium | -0.7027 | -1 (-1 = if < -4 mV) | -19.4 | -19.4 | – | – | – | – | – | – | – | – | – | – | – | Log10 of Rel to EFC (Feb2021) [2, 5]: -0.7027
KAKAKAQA [TG15] | 0 | – | 0.008711 | – | low | -2.06 | -1 (-1 = if < -4 mV) | -9.01 | -9.01 | -2.06 | 186.7 | 0.366 | 0.008711 | low | -9.01 | -1 (-1 = if < -4 mV) | – | – | – | – | –
KAKAQANM [TM152] | 0.5 | 0.3782 | 0.009 | 496.7 | low | -2.046 | 0 (0 = -4mV to 4 mV) | -2.62 | -2.62 | -2.046 | – | – | 0.009 | low | – | 0 (0 = -4mV to 4 mV) | 0.3782 | -2.046 | 0.009 | -2.62 | –
KFKFKFQF [TG18] | 1 | – | 0.7993 | – | – | -0.09726 | 1 (+1 = if > 4 mV) | 15.2 | 15.2 | -0.09726 | 18696.66667 | 33.59 | 0.7993 | high | 15.2 | 1 (+1 = if > 4 mV) | – | – | – | – | –
KFKQFFNMWQ [JG5] | 0 | – | 0.08925 | – | low | -1.0494 | 0 (0 = -4mV to 4 mV) | -3.43 | -3.43 | -1.049 | 1000 | 3.75 | 0.08925 | – | -3.43 | 0 (0 = -4mV to 4 mV) | – | – | – | – | –
KIKIKIQI [TG13] | 1 | – | 0.09675 | – | low | -1.014 | 1 (+1 = if > 4 mV) | 6.97 | 6.97 | -1.014 | 2073 | 4.065 | 0.09675 | low | 6.97 | 1 (+1 = if > 4 mV) | – | – | – | – | –
KIKIQINMW [JGB1 /TM85] | 1 | – | – | – | high | 0.3339 | 1 (+1 = if > 4 mV) | 19.7 | 19.7 | 0.3339 | – | – | 2.157 | high | – | 1 (+1 = if > 4 mV) | 90.64 | 0.3339 | 2.157 | 19.7 | –
KWKWQW [KB3] | 0 | 0.6105 | 0.01453 | 386.7 | low | -1.838 | 1 (+1 = if > 4 mV) | 7.55 | 7.55 | – | – | – | – | – | – | – | – | – | – | – | Log10 of Rel to EFC (Feb2021) [2, 5]: -1.838; Rel-to EFC [2]: 0.01453; n-fold to virus [2, 17]: 0.6105
MKIKIQINM [TM41] | 1 | 11.48 | 0.2732 | 15000 | medium | -0.5635 | 1 (+1 = if > 4 mV) | 9.13 | 9.13 | – | – | – | – | – | – | – | – | – | – | – | Log10 of Rel to EFC (Feb2021) [2, 5]: -0.5635
MKIKIQINMWQ [TM52] | 1 | 17.6 | 0.4188 | 12786.66667 | medium | -0.378 | 1 (+1 = if > 4 mV) | 10.8 | 10.8 | -0.378 | – | – | 0.4188 | – | – | 1 (+1 = if > 4 mV) | 17.6 | -0.378 | 0.4188 | 10.8 | –
QCKAKAQA [CK24] | 0.5 | 1.061 | 0.02526 | 806.7 | low | -1.598 | 0 (0 = -4mV to 4 mV) | 0.674 | 0.674 | -1.598 | – | – | 0.02526 | – | – | 0 (0 = -4mV to 4 mV) | 1.061 | -1.598 | 0.02526 | 0.674 | Rel-to EFC [2]: 0.02526; n-fold to virus [2, 17]: 1.0614
